{"source": "patent US20090005321A1", "about": "“Phenylazetidinone Derivatives” (Microbia, Inc., priority 2005, published 2009)", "origin": "cited, not measured here", "key": {"[1]": {"settings": "in humans"}, "[2]": {"settings": "in vivo"}}}
{"smiles": "O=C1[C@H](CC[C@H](O)c2ccc(F)cc2)[C@@H](c2ccc(O)cc2)N1c1ccc(F)cc1", "note": "[ezetimibe, (3R,4S)-1-(4-fluorophenyl)-3-[(3S)-3-(4-fluorophenyl)-3-hydroxypropyl]-4-(4-hydroxyphenyl)azetidin-2-one]", "values": [{"measurement": "fat-soluble vitamin absorption", "setting": "[1]", "value": "does not appear to affect"}, {"measurement": "absorption of taurocholic acid", "setting": "[2]", "value": "does not inhibit"}]}
